Test results reported in patent US7414068B2, “Benzopyran derivatives substituted with secondary amines including tetrazole, method for the preparation thereof and pharmaceutical compositions containing them” (Dongbu Hannong Chemical Co., Ltd., priority 2002, dated 2008).

Assays:
[1] = tested on: isolated ischemic rat heart; experiment: Cardioprotective effect in ischemic heart models of rats (Langendorff); conditions: 10 μM
Outline: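 Langendorff-perfused male rat hearts (Krebs-Henseleit, 85 mmHg, 37 °C) pretreated 10 min with compound or vehicle (0.04% DMSO), then 30 min global ischemia and 30 min reperfusion. Read-outs: LVDP, HR, CF, rate-pressure product, time to contracture (first 5 mmHg EDP rise), LDH release.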

cortical neuron cells = experiment: Protective effect on hydrogen peroxide induced neuronal cell injury; assay type: cell-based; conditions: hydrogen peroxide 30 μM
isolated rat aorta = experiment: Vasodilating effect on blood vessel excised from rats (methoxamine-constricted aorta); conditions: isolated rat aorta constricted with methoxamine (3 μM); read-out: Concentration for inhibition of constriction induced by methoxamine in rat arota (IC50)
Outline: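 Endothelium-denuded rat thoracic aortic rings (3 mm) in Krebs-Henseleit buffer, 37 °C, carbogen, 2 g resting tension, primed twice with 10^−5 M phenylephrine. After maximal contraction with 3×10^−6 M methoxamine, compounds added cumulatively at 1, 3, 10, 30 μM. IC50 = concentration giving 50% relaxation of maximal constriction, by linear regression.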

[2] = tested on: A7r5 (Rat thoracic aorta smooth muscle cell line, ATCC); experiment: Inhibitory effect on accumulation of reactive oxygen species induced by hydrogen peroxide (DCF fluorescence); assay type: cell-based; conditions: hydrogen peroxide 50 μM
Method: To measure reactive oxygen species, H2DCFDA (2′,7′-dichlorodihydrofluorescein diacetate, Molecular Probes, Eugene, Oreg., USA) was used. If H2DCFDA, nonpolar material is transferred through cell membrane, it is changed to H2DCF (2′,7′-dichlorodihydrofluorescein), material impermeable to membrane by intracellular esterase. H2DCF is changed to high fluorescent DCF (2′,7′-dichlorofluorescein) by low fluorescent peroxidated oxygen or hydroxyl radical. H2DCFDA solution (10 mM) dissolved in DMSO was used before the experiment. A7r5 (Rat thoracic aorta smooth muscle cell line, ATCC), as smooth muscle cell was incubated in DMEM (Dulbecco's Modified Eagle's Medium) containing 10% of FBS (fetal bovine serum). Thereafter, the cell was incubated in 48 well plate for two days, then was incubated in serum-free DMEM for 24 hours to use for experiment. Krebs-linger buffer (Krebs-Ringer (K-R), 99.01 mM NaCl, 4.69 mM KCl, 1.87 mM CaCl2, 1.2 mM MgSO4, 1.03 mM K2HPO4, 25 mM NaHCO3, 20 mM Hepes, 11.1 mM D-glucose, pH 7.4) was used for washing and process of cell monolayers. After cell monolayers media was removed, each of test compounds (0.2 ml) was pre-treated to media, then incubated at 37° C. for 15 min. Final concentration was 50 μM, hydrogen peroxide was added. The media was allowed to stand for 30 min. The said solution from media was removed. The media was washed one time. H2DCFDA 20 μM was added to the media. The media was allowed to stand for 30 min. the media was washed two times. Thereafter, oxidation of H2DCFDA was measured by Fluorescence reader (FL600, Biotech Instruments, 485 nm excitation, 530 nm emission).

Compound: CC1(C)Oc2ccc(C#N)cc2[C@@H](NC(=NC#N)Nc2ccc(Cl)cc2)[C@@H]1O [BMS-180448, reference compound]
- EDP (mmHg) ([1]; after 30 min global ischemia and reperfusion): 16.5 mmHg
- LDH (u/g) ([1]; reperfusion LDH release): 17.2 u/g
- LVDP X HR (%) ([1]; reperfusion, % of pre-treatment DP): 67.6%
- TTC ([1]; time to contracture during global ischemia): 27.8 min
- Inhibition(%) of hydrogen peroxide induced neuronal cell injury (cortical neuron cells; Addition 30 μM): −5%
- IC50 (isolated rat aorta): 1380 nM

Compound: CC(CN1c2ccccc2Sc2ccccc21)N(C)C (centres unmarked) [Promethazine]
- Inhibition(%) of hydrogen peroxide induced neuronal cell injury (cortical neuron cells; Addition 5 μM): 97%

Compound: CCCOC(=O)c1cc(O)c(O)c(O)c1 [Propyl gallate, reference compound]
- Inhibition(%) of hydrogen peroxide induced neuronal cell injury (cortical neuron cells; Addition 10 μM): 94%
- Inhibitory(%) against reactive oxygen species accumulation ([2]; addition 3 μM): 57%
- Inhibitory(%) against reactive oxygen species accumulation ([2]; addition 10 μM): 94%
- Inhibitory(%) against reactive oxygen species accumulation ([2]; addition 30 μM): 108%
